In ChEMBL document CHEMBL3044789, “Comparing weed and crop seedling response to pre-emergence pendimethalin application in Corchorus olitorius and Abelmoschus esculentus” (Crop Prot, 2006):

Key:
[1] = system: Calopogonium mucunoides; assay: Herbicidal activity against Calopogonium mucunoides in Abelmoschus esculentus plots assessed as weed cover at 0.99 kg a.i/ha after 4 weeks (reference value: 22.6 +/- 0.49 %); assay type: functional
[2] = system: Ageratum conyzoides; assay: Herbicidal activity against Ageratum conyzoides in Abelmoschus esculentus plots assessed as weed cover at 0.33 kg a.i/ha after 4 weeks (reference value: 22.6 +/- 0.49 %); assay type: functional
[3] = system: Talinum fruticosum; assay: Herbicidal activity against Talinum fruticosum in Abelmoschus esculentus plots assessed as weed cover at 0.99 kg a.i/ha after 2 weeks (reference value: 63.5 +/- 0.29 %); assay type: functional
[4] = system: Commelina diffusa; assay: Herbicidal activity against Commelina diffusa in Abelmoschus esculentus plots assessed as weed cover at 0.66 kg a.i/ha after 2 weeks (reference value: 63.5 +/- 0.29 %); assay type: functional
[5] = system: Euphorbia heterophylla; assay: Herbicidal activity against Euphorbia heterophylla in Abelmoschus esculentus plots assessed as major weed growth at 1.32 kg a.i/ha after 2 weeks; assay type: functional
[6] = system: Euphorbia heterophylla; assay: Herbicidal activity against Euphorbia heterophylla in Abelmoschus esculentus plots assessed as major weed growth at 0.33 kg a.i/ha after 2 weeks; assay type: functional
[7] = system: Synedrella nodiflora; assay: Herbicidal activity against Synedrella nodiflora in Abelmoschus esculentus plots assessed as major weed growth at 0.99 kg a.i/ha after 2 weeks; assay type: functional
[8] = system: Synedrella nodiflora; assay: Herbicidal activity against Synedrella nodiflora form in Abelmoschus esculentus plots assessed as minor weed growth at 0.66 kg a.i/ha after 2 weeks; assay type: functional
[9] = system: Ageratum conyzoides; assay: Herbicidal activity against Ageratum conyzoides in Abelmoschus esculentus plots assessed as major weed growth at 0.33 kg a.i/ha after 2 weeks; assay type: functional
[10] = system: Commelina diffusa; assay: Herbicidal activity against Commelina diffusa in Corchorus olitorius plots assessed as minor weed growth at 0.66 kg a.i/ha after 2 weeks; assay type: functional
[11] = system: Synedrella nodiflora; assay: Herbicidal activity against Synedrella nodiflora in Corchorus olitorius plots assessed as major weed growth at 0.33 kg a.i/ha after 2 weeks; assay type: functional
[12] = system: Chromolaena odorata; assay: Herbicidal activity against Chromolaena odorata in Corchorus olitorius plots assessed as minor weed growth at 1.32 kg a.i/ha after 2 weeks; assay type: functional
[13] = system: Asteraceae; assay: Herbicidal activity against Aspilia africana in Corchorus olitorius plots assessed as minor weed growth at 0.66 kg a.i/ha after 2 weeks; assay type: functional
[14] = system: Synedrella nodiflora; assay: Herbicidal activity against Synedrella nodiflora in Abelmoschus esculentus plots assessed as weed recovery at 0.33 kg a.i/ha after 2 weeks (reference value: 60.1 +/- 0.46 %); assay type: functional
[15] = system: Calopogonium mucunoides; assay: Herbicidal activity against Calopogonium mucunoides in Abelmoschus esculentus plots assessed as weed cover at 1.32 kg a.i/ha after 2 weeks (reference value: 63.5 +/- 0.29 %); assay type: functional
[16] = system: Euphorbia heterophylla; assay: Herbicidal activity against Euphorbia heterophylla in Abelmoschus esculentus plots assessed as weed cover at 1.32 kg a.i/ha after 2 weeks (reference value: 63.5 +/- 0.29 %); assay type: functional
[17] = system: Talinum fruticosum; assay: Herbicidal activity against Talinum fruticosum in Corchorus olitorius plots assessed as weed recovery at 0.99 kg a.i/ha after 2 weeks (reference value: 78.3 +/- 0.74 %); assay type: functional
[18] = system: Commelina diffusa; assay: Herbicidal activity against Commelina diffusa in Corchorus olitorius plots assessed as weed cover at 0.66 kg a.i/ha after 7 weeks (reference value: 1.7 +/- 0.56 %); assay type: functional
[19] = system: Synedrella nodiflora; assay: Herbicidal activity against Synedrella nodiflora in Abelmoschus esculentus plots assessed as weed cover at 0.33 kg a.i/ha after 7 weeks (reference value: 14.7 +/- 0.46 %); assay type: functional
[20] = system: Abelmoschus esculentus; assay: Phytotoxicity in Abelmoschus esculentus assessed as seedling emergence at 0.66 kg a.i/ha treated to soil after 7 weeks (reference value: 95 +/- 0.05 %); assay type: organism-based; conditions: in vivo, other, 1176 h
[21] = system: Abelmoschus esculentus; assay: Phytotoxicity in Abelmoschus esculentus assessed as root length at 0.33 kg a.i/ha treated to soil after 7 weeks (reference value: 2.9 +/- 0.45 mm); assay type: organism-based; conditions: in vivo, other, 1176 h
[22] = system: Corchorus olitorius; assay: Phytotoxicity in Corchorus olitorius assessed as shoot length at 1.32 kg a.i/ha applied as solution after 7 weeks (reference value: 22.9 +/- 0.8 mm); assay type: organism-based; conditions: in vivo, other, 1176 h
[23] = system: Euphorbia heterophylla; assay: Herbicidal activity against Euphorbia heterophylla in Corchorus olitorius plots assessed as weed cover at 0.33 kg a.i/ha after 7 weeks (reference value: 1.7 +/- 0.56 %); assay type: functional
[24] = system: Synedrella nodiflora; assay: Herbicidal activity against Synedrella nodiflora in Corchorus olitorius plots assessed as weed cover at 0.33 kg a.i/ha after 7 weeks (reference value: 1.7 +/- 0.56 %); assay type: functional
[25] = system: Mimosa pudica; assay: Herbicidal activity against Mimosa pudica in Abelmoschus esculentus plots assessed as minor weed growth at 0.33 kg a.i/ha after 2 weeks; assay type: functional
[26] = system: Commelina diffusa; assay: Herbicidal activity against Commelina diffusa in Abelmoschus esculentus plots assessed as minor weed growth at 0.66 kg a.i/ha after 2 weeks; assay type: functional
[27] = system: Calopogonium mucunoides; assay: Herbicidal activity against Calopogonium mucunoides in Abelmoschus esculentus plots assessed as major weed growth at 0.99 kg a.i/ha after 2 weeks; assay type: functional
[28] = system: Commelina diffusa; assay: Herbicidal activity against Commelina diffusa in Corchorus olitorius plots assessed as weed recovery at 0.66 kg a.i/ha after 2 weeks (reference value: 78.3 +/- 0.74 %); assay type: functional
[29] = system: Cyperus rotundus; assay: Herbicidal activity against Cyperus rotundus in Corchorus olitorius plots assessed as weed recovery at 0.66 kg a.i/ha after 2 weeks (reference value: 78.3 +/- 0.74 %); assay type: functional
[30] = system: Euphorbia heterophylla; assay: Herbicidal activity against Euphorbia heterophylla in Corchorus olitorius plots assessed as weed recovery at 0.33 kg a.i/ha after 2 weeks (reference value: 78.3 +/- 0.74 %); assay type: functional
[31] = system: Euphorbia heterophylla; assay: Herbicidal activity against Euphorbia heterophylla in Corchorus olitorius plots assessed as weed cover at 1.32 kg a.i/ha after 7 weeks (reference value: 1.7 +/- 0.56 %); assay type: functional
[32] = system: Abelmoschus esculentus; assay: Phytotoxicity in Abelmoschus esculentus assessed as seed germination at 0.99 kg a.i/ha applied as solution after 7 weeks (reference value: 85.7 +/- 0.36 %); assay type: organism-based; conditions: in vivo, other, 1176 h
[33] = system: Euphorbia heterophylla; assay: Herbicidal activity against Euphorbia heterophylla in Corchorus olitorius plots assessed as weed cover at 1.32 kg a.i/ha after 4 weeks (reference value: 20.1+/- 0.57 %); assay type: functional
[34] = system: Asteraceae; assay: Herbicidal activity against Aspilia africana in Corchorus olitorius plots assessed as weed cover at 0.66 kg a.i/ha after 4 weeks (reference value: 20.1+/- 0.57 %); assay type: functional
[35] = system: Chromolaena odorata; assay: Herbicidal activity against Chromolaena odorata in Corchorus olitorius plots assessed as weed cover at 1.32 kg a.i/ha after 4 weeks (reference value: 20.1+/- 0.57 %); assay type: functional
[36] = system: Calopogonium mucunoides; assay: Herbicidal activity against Calopogonium mucunoides in Corchorus olitorius plots assessed as weed cover at 0.99 kg a.i/ha after 4 weeks (reference value: 20.1+/- 0.57 %); assay type: functional
[37] = system: Synedrella nodiflora; assay: Herbicidal activity against Synedrella nodiflora in Corchorus olitorius plots assessed as weed cover at 0.99 kg a.i/ha after 4 weeks (reference value: 20.1+/- 0.57 %); assay type: functional

## CCC(CC)Nc1c([N+](=O)[O-])cc(C)c(C)c1[N+](=O)[O-] [PENDIMETHALIN]
[1]
  Activity: 39.2%
[2]
  Activity: 53.8%
[3]
  Activity: 47.9%
[4]
  Activity: 50.8%
[5]
  Activity: 31 /m2
[6]
  Activity: 31 /m2
[7]
  Activity: 31 /m2
[8]
  Activity: 1 /m2
[9]
  Activity: 31 /m2
[10]
  Activity: 1 /m2
[11]
  Activity: 31 /m2
[12]
  Activity: 1 /m2
[13]
  Activity: 1 /m2
[14]
  Activity: 39.2%
[15]
  Activity: 45%
[16]
  Activity: 45%
[17]
  Activity: 21.7%
[18]
  Activity: 100%
[19]
  Activity: 90%
[20]
  Activity: 82%
[21]
  Activity: 3 mm
[22]
  Activity: 5.3 mm
[23]
  Activity: 100%
[24]
  Activity: 100%
[25]
  Activity: 1 /m2
[26]
  Activity: 1 /m2
[27]
  Activity: 31 /m2
[28]
  Activity: 33.3%
[29]
  Activity: 33.3%
[30]
  Activity: 31.7%
[31]
  Activity: 95%
[32]
  Activity: 41.1%
[33]
  Activity: 33.3%
[34]
  Activity: 63.3%
[35]
  Activity: 33.3%
[36]
  Activity: 48.3%
[37]
  Activity: 48.3%
